Assay results reported in patent US20240041991A1, “STABLE LIQUID DISPERSINB COMPOSITIONS” (KANE BIOTECH INC., priority 2020, published 2024).
Where two headings read alike, the source gives them in different places. Marks after values point to notes of the source that are not given here.

Columns and labels:
DispersinB [1] = format: biochemical, Aggregatibacter actinomycetemcomitans; conditions: 50 mM citrate buffer pH 5.9, 100 mM NaCl, levulinic acid % as in label, control = 100%
Protocol: DispersinB enzyme (100 μg/ml) solutions in 50 mM citrate buffer (pH 5.9), 100 mM NaCl containing Levulinic acid (0.25%-2%) were tested for DispersinB enzymatic activity following β-N-Acetylglucosaminidase assay.

DispersinB [2] = conditions: 50 mM Citrate, 100 mM NaCl pH 5.9 control = 100%
Protocol: DispersinB enzyme solutions (100 μg/ml) were prepared in 50 mM citrate buffer, containing 200 mM K2SO4. The pH was adjusted (5.4 to 5.9). DispersinB enzymatic activity was measured using β-N-Acetylglucosaminidase assay kit from Sigma (product code CS0780) in 96-well microtiter plate following the manufacturer's instructions. The data was represented as % enzymatic activity in comparison to enzyme activity of control sample that contained 100 μg/ml DispersinB in 50 mM citrate buffer (pH 5.9) containing 100 mM NaCl Activity of the control sample was considered 100%.

DispersinB [3] = format: biochemical, Aggregatibacter actinomycetemcomitans; conditions: 50 mM citrate buffer pH 5.9, salt concentration as in label, control with no salts = 100%
Source text: Activity of the control sample with no salts was considered 100%.

DispersinB [4] = experiment: Effect of buffer and pH on DispersinB enzymatic activity (β-N-Acetylglucosaminidase assay kit); format: biochemical, Aggregatibacter actinomycetemcomitans; conditions: buffer strength 100 mM, 100 mM NaCl, citrate pH 5.9 = 100%
Protocol: Lyophilized DispersinB powder was dissolved in selected buffers (citrate, phosphate) of defined pH (5.5 -7.5). The DispersinB concentration was adjusted to 100 μg/ml. Salt concentration was maintained at 100 mM sodium chloride. […] The enzymatic activity was presented as percentages in comparison to enzymatic activity of DispersinB in 100 mM Citrate buffer, 100 mM NaCl, pH 5.9, which was considered 100%.
Enzymatic activity in citrate buffer with a pH of 5.9 was considered 100%. * indicates statistically significant (p<0.05) values in paired two tailed t-test, each treatment was compared with enzymatic activity of DispersinB in corresponding buffer of pH 5.9.

DispersinB [5] = conditions: 50 mM citrate buffer pH 5.9, 100 mM K2SO4 sample = 100%

CC(=O)CCC(=O)O [Levulinic acid, 4-oxopentanoic acid]
% enzymatic activity of DispersinB (Mean) (DispersinB [1]; listed as 0.25% Levulinic acid): 103* % | % enzymatic activity of DispersinB (Mean) (DispersinB [1]; listed as 0.5% Levulinic acid): 102% | % enzymatic activity of DispersinB (Mean) (DispersinB [1]; listed as 1% Levulinic acid): 104% | % enzymatic activity of DispersinB (Mean) (DispersinB [1]; listed as 2% Levulinic acid): 104* % | % enzymatic activity of DispersinB (Mean) (DispersinB [1]; listed as 3% Levulinic acid): 109* % | % enzymatic activity of DispersinB (Mean) (DispersinB [1]; listed as 4% Levulinic acid): 109* % | % enzymatic activity of DispersinB (Mean) (DispersinB [1]; listed as 5% Levulinic acid): 114* %

[Cl-].[Na+] [100 mM NaCl, NaCl]
% Activity (DispersinB [2]; pH 5.9): 100.00^b % | % enzymatic activity of DispersinB (Mean) (DispersinB [3]): 179* %

[Cl-].[K+] [100 mM KCl, KCl]
% enzymatic activity of DispersinB (Mean) (DispersinB [3]): 152* %

O=[N+]([O-])[O-].[K+] [100 mM KNO3, KNO3]
% enzymatic activity of DispersinB (Mean) (DispersinB [3]): 135* %

CC(=O)O.N [100 mM NH4 CH2COO, NH4 CH2COO]
% enzymatic activity of DispersinB (Mean) (DispersinB [3]): 66* %

O=C(O)CC(O)(CC(=O)O)C(=O)O [Citrate]
% Enzyme activity (DispersinB [4]; pH 5.5): 72* % | % Enzyme activity (DispersinB [4]; pH 5.9): 100% | % Enzyme activity (DispersinB [4]; pH 6): 76* % | % Enzyme activity (DispersinB [4]; pH 6.5): 53* % | % Enzyme activity (DispersinB [4]; pH 7): 35* % | % Enzyme activity (DispersinB [4]; pH 7.5): 21* %

O=S(=O)([O-])[O-].[K+].[K+] [K2SO4, potassium sulfate]
% Activity (DispersinB [2]; pH 4): 11.06^ab % | % Activity (DispersinB [2]; pH 4.2): 22.55^ab % | % Activity (DispersinB [2]; pH 4.4): 34.17^ab % | % Activity (DispersinB [2]; pH 4.6): 57.21 ^ab % | % Activity (DispersinB [2]; pH 4.8): 81.09 ^ab % | % Activity (DispersinB [2]; pH 5): 118.00 ^ab % | % Activity (DispersinB [2]; pH 5.1): 133.61 ^ab % | % Activity (DispersinB [2]; pH 5.2): 149.86 ^ab % | % Activity (DispersinB [2]; pH 5.3): 142.65 ^ab % | % Activity (DispersinB [2]; pH 5.4): 162.25^a % | % Activity (DispersinB [2]; pH 5.5): 172.83^a % | % Activity (DispersinB [2]; pH 5.6): 166.67^a % | % Activity (DispersinB [2]; pH 5.7): 154.62^a % | % Activity (DispersinB [2]; pH 5.8): 146.99 ^ab % | % Activity (DispersinB [2]; pH 5.9): 143.77 ^ab % | % Activity (DispersinB [2]; pH 6): 130.81 ^ab % | % enzymatic activity of DispersinB (Mean) (DispersinB [3]; listed as 100 mM K2SO4): 211* % | % enzymatic activity of DispersinB (Mean) (DispersinB [3]; listed as 200 mM K2SO4): 289* % | % Activity (DispersinB [5]; 100 mM K2SO4): 100% | % Activity (DispersinB [5]; 150 mM K2SO4): 143* % | % Activity (DispersinB [5]; 200 mM K2SO4): 149* % | % Activity (DispersinB [5]; 250 mM K2SO4): 159* % | % Activity (DispersinB [5]; 300 mM K2SO4): 141* %

O=S(=O)([O-])[O-].[Mg+2] [100 mM MgSO4, MgSO4]
% enzymatic activity of DispersinB (Mean) (DispersinB [3]): 87%

Cl.N [100 mM NH4Cl, NH4Cl]
% enzymatic activity of DispersinB (Mean) (DispersinB [3]): 129* %

[Cl-].[Li+] [100 mM LiCl, LiCl]
% enzymatic activity of DispersinB (Mean) (DispersinB [3]): 97%

N.N.O=S(=O)(O)O [100 mM (NH4)2SO4, (NH4)2SO4]
% enzymatic activity of DispersinB (Mean) (DispersinB [3]): 91%

[Cl-].[Cl-].[Mg+2] [100 mM MgCl2, MgCl2]
% enzymatic activity of DispersinB (Mean) (DispersinB [3]): 81* %

Phosphate
% Enzyme activity (DispersinB [4]; pH 5.5): 80* % | % Enzyme activity (DispersinB [4]; pH 5.9): 100% | % Enzyme activity (DispersinB [4]; pH 6): 81* % | % Enzyme activity (DispersinB [4]; pH 6.5): 50* % | % Enzyme activity (DispersinB [4]; pH 7): 24* % | % Enzyme activity (DispersinB [4]; pH 7.5): 12* %

O=S(=O)([O-])[O-].[Na+].[Na+] [100 mM Na2SO4, Na2SO4]
% enzymatic activity of DispersinB (Mean) (DispersinB [3]): 174* %
